Test results: patent US20230123140A1, “DOSE TREATMENTS OF TAUOPATHIES” (AC Immune SA, priority 2020, published 2023)
Where two headings read alike, the source gives them in different places.

Experiments:
Format in all cases: in vivo
[1] = Pharmacokinetics in SAD and MAD studies (plasma, urine)
Method: Secondary Objectives: • To assess the PK of ACI-3024 in plasma, urine, and cerebrospinal fluid (CSF). • To compare the plasma and urine PK parameters of ACI-3024 following single oral doses in the fed and fasting states.
(§1) In each of Cohorts S1 to S5, 6 subjects (including 3 Japanese subjects in Cohorts S2 through S5) received ACI-3024 and 2 subjects (including 1 Japanese subject in Cohorts S2 through S5) received placebo. All doses were administered in the fasting state in accordance with a randomization schedule on the morning of Day 1, except for subjects in the food-effect cohort (Cohort S4), who were dosed 30 minutes after starting a high-fat breakfast in Treatment Period 2 only. Each subject received only a single dose of ACI-3024 or placebo during the study, except for subjects in the food effect cohort, who received a single dose of ACI-3024 or placebo in the fasting state followed by a single dose of ACI-3024 in the fed state. Thus, subjects in Cohort S4 received either 2 identical doses of ACI-3024 (6 subjects) or 1 dose of placebo and 1 dose of ACI-3024 (2 subjects). Six subjects of Cohort S4 received 750 mg dose of ACI-3024 and 2 subjects received placebo. After a period of wash-up all 8 subjects of Cohort S4 received a fat-breakfast and a 750 mg dose of ACI-3024.
Cohorts MAD-HV1 to MAD-HV3 comprised 10 elderly non-Japanese male or female subjects, 8 were treated with ACI-3024 and 2 were being given placebo. Cohort MAD-HV4 comprised 5 non-elderly Japanese subjects (4 treated with ACI-3024 and 1 given placebo) and 5 […] (4 treated with ACI-3024 and 1 given placebo). Only subjects from MAD HV3 cohort underwent CSF samplings to explore the CSF inflammatory markers, CSF PK, and CSF PD of ACI-3024. For all subjects, dosing was on […], inclusive, and a final single dose administration occurred on […]. Dose in cohort MAD HV1 was 500 mg of ACI-3024 or placebo, QD, fasted. Dose in cohorts MAD HV2 and MAD HV4 was 500 mg of ACI-3024 or placebo, BID (“bis in die” ie., twice a day), fed. Dose in cohort MAD HV3 was 1400 mg of ACI-3024 or placebo, QD (“quaque die” (once a day), fed.

[2] = Toxicokinetics in the 4-week mouse toxicity study; details: for AUC(0-t) / Cmax / Tmax: plasma
Method: This study was conducted to evaluate the potential toxicity of ACI-3024 when given daily by oral gavage to CD1 mice for 4 weeks, followed by a 2-week recovery period. Doses of 100, 300 and 1000 mg/kg were administered by p.o. to 10 animals/sex/group daily. The control animals were administered vehicle. The dose volume was 10 mL/kg for all groups.

cardiovascular system = experiment: Cardiovascular evaluation in telemetrized mini-pig; details: single oral dose 0, 50, 150 and 450 mg/kg, male Gottingen mini-pigs
Method: This study was conducted to evaluate the potential effects on the cardiovascular system of ACI-3024 when given as single dose to telemetrized Gottingen mini-pig.
Doses of 0, 50, 150 and 450 mg/kg were administered by oral gavage to 4 males/group. The dose volume was set at 5 mL/kg. The study was a randomized cross over design which consisted of four phases separated by seven days of wash out. In each phase each animal received as single administration of one selected doses. Through the phases each animal received all the dose levels once. ECG (heart rate, duration of the PR, QRS, QT, QTcF (QT interval corrected by Fridericia) and RR intervals (millisecond; ms), blood pressure (systolic, diastolic, and mean arterial pressure) and body temperature parameters through a transmitter implanted into the animals were continuously recorded starting from 30 minutes before dosing up to 20 hours after dose. Different timepoints during the recording period were sampled (−30 min (before dose) and 1 h, 2 h, 4 h, 6 h, 8 h, 12 h and 20 h (after dose)), per each timepoint 5-minute segment was used for study purposes.

healthy subjects = experiment: First-in-human study, single ascending dose (SAD) part: safety and tolerability; details: for number of AEs: healthy subjects
Description: A First-In-Human, Randomized, Placebo-Controlled, Double-Blind, SAD/MAD Study to Assess the Safety, Tolerability, Pharmacokinetics, and Pharmacodynamics of ACI-3024
The objective of the study is to assess the safety, tolerability, pharmacokinetics (PK), and pharmacodynamics (PD) of single ascending doses (SAD) and multiple ascending doses (MAD) of ACI-3024 in a first-in-human, randomized, placebo-controlled, double-blind, sequential SAD/MAD study with open-label food effect and pharmacodynamic assessment arms. The study comprises different parts to be conducted in Healthy Volunteers: • 1) one Single Ascending Dose (SAD) part in which several cohorts are being investigated with single ascending doses of ACI-3024. The food effect is also explored in this part. • 2) one Multiple Ascending Dose (MAD) part in which several cohorts are being investigated with multiple ascending doses of ACI-3024. Each study part is assessing the safety, tolerability, pharmacokinetics and pharmacodynamics of ACI-3024.
This part comprised a single dose, sequential group design. Overall, 40 healthy non-elderly male subjects were enrolled in 5 cohorts (Cohorts S1 to S5), with each cohort consisting of 8 subjects.
No Japanese subjects were enrolled in Cohort S1. For Cohorts S2 through S5, 4 Japanese subjects and 4 non Japanese subjects were enrolled.
as §1
The total duration of study participation for each subject (from Screening through Follow-up visit) was approximately 37 days, except for subjects in the food-effect cohort (Cohort S4), for whom the total duration was up to approximately 44 days.

[3] = statistical assessment, healthy volunteers
[4] = both sexes, mouse, Day 28, 300 mg/kg oral, average M/F CD-1 mice
[5] = mouse, Day 28, 300 mg/kg oral, female CD-1 mice
[6] = mouse, Day 28, 300 mg/kg oral, male CD-1 mice

Fc1ccc2c3c([nH]c2c1)CCN(c1ccc2oc(N4CCOCC4)nc2c1)C3 [ACI-3024]
Tmax ([1]; both sexes, human, plasma, oral, fasting state, single or multiple doses, read-out: median time of maximum observed plasma concentration (Tmax)): 1.25 to 2.5 h
half-life ([1]; both sexes, human, plasma, oral, following 14 days of multiple dosing, when calculable, read-out: geometric mean t1/2): 47.5 to 101 h
food effect on rate of absorption ([1]; fed vs fasting state): reduced the rate of absorption
food effect: increase of overall exposure ([1]; fed vs fasting state): approximately 3 fold
excretion in urine ([1]; healthy volunteers): Only a small amount
half-life ([1]; human, plasma, oral, humans, read-out: plasma half-life): > 24 h
half-life ([1]; male, human, plasma, oral, following single dose administration, read-out: geometric mean t1/2): 27.7 to 60.5 h
accumulation ([1]; multiple dosing, QD or BID regimen): evidence of accumulation
dose proportionality of AUC0-tlast and AUC0-∞ [1, 3]: dose-proportional increase
dose proportionality of Cmax [1, 3]: subproportional increase
dose proportionality of plasma exposure ([2]; 100 to 1000 mg/kg): less than dose proportionally
AUC(0-t) [2, 4]: 353 µg·h/mL
Cmax [2, 4]: 25800 ng/mL
Tmax [2, 4]: 4 h
Tmax ([2]; female, CD1, mouse, oral, females, high-dose group (1000 mg/kg), delayed): 24 h
sex difference in exposure ([2]; in general, except 300 mg/kg/day on Day 28): higher exposure was observed in females than in males
AUC(0-t) [2, 5]: 320 µg·h/mL
Cmax [2, 5]: 23400 ng/mL
Tmax [2, 5]: 4 h
AUC(0-t) [2, 6]: 386 µg·h/mL
Cmax [2, 6]: 28300 ng/mL
Tmax [2, 6]: 4 h
accumulation ([2]; repeated administrations, Day 1 vs. Day 28): slight ACI-3024 accumulation
effect on cardiovascular parameters and body temperature (cardiovascular system): no effect
SAEs or AEs leading to discontinuation (healthy subjects; SAD cohorts, 25 to 1500 mg): no SAEs or AEs leading to discontinuation from the study
vital signs, ECG values, physical or neurological examinations (healthy subjects; SAD cohorts, 25 to 1500 mg): no clinically significant observations
severity of AEs (healthy subjects; SAD cohorts, 25 to 1500 mg (all AEs of the part, placebo included)): mild
overall safety and tolerability (healthy subjects; SAD study, up to the highest administered dose of 1500 mg): safe and well tolerated
number of AEs (healthy subjects; single oral dose 25 mg): 2
number of AEs (healthy subjects; single oral dose 100 mg): 0
number of AEs (healthy subjects; single oral dose 300 mg): 3
number of AEs (healthy subjects; single oral dose 750 mg (fed and fasted states)): 6
number of AEs (healthy subjects; single oral dose 1500 mg): 2
